Data taken from ChEMBL document CHEMBL3045421, “5-Nitro-heteroarylidene analogs of 2-thiazolylimino-4-thiazolidinones as a novel series of antibacterial agents” (2013).
Values after ≈ are worked out from the molar mass of the structure shown.

Assays:
Type in all cases: functional
[1] = test system: Helicobacter pylori; test: Antibacterial activity against Helicobacter pylori strain 2 assessed as diameter of growth inhibition zone at 64 ug/disk after 3-5 days by filter paper disk diffusion method; conditions: read-out: DIZ
[2] = test system: Klebsiella pneumoniae; test: microbe, parasite or virus in culture; conditions: ATCC 10031, 24 h
Description: Antibacterial activity against Klebsiella pneumoniae ATCC 10031 assessed as growth inhibition after 24 hr by microdilution method

[3] = test system: Helicobacter pylori; test: Antibacterial activity against Helicobacter pylori strain 1 assessed as diameter of growth inhibition zone at 64 ug/disk after 3-5 days by filter paper disk diffusion method; conditions: read-out: DIZ
[4] = test system: Helicobacter pylori; test: Antibacterial activity against Helicobacter pylori strain 3 assessed as diameter of growth inhibition zone at 16 ug/disk after 3-5 days by filter paper disk diffusion method; conditions: read-out: DIZ
[5] = test system: Helicobacter pylori; test: Antibacterial activity against Helicobacter pylori strain 1 assessed as diameter of growth inhibition zone at 16 ug/disk after 3-5 days by filter paper disk diffusion method; conditions: read-out: DIZ
[6] = test system: Helicobacter pylori; test: Antibacterial activity against Helicobacter pylori strain 3 assessed as diameter of growth inhibition zone at 32 ug/disk after 3-5 days by filter paper disk diffusion method; conditions: read-out: DIZ
[7] = test system: Helicobacter pylori; test: Antibacterial activity against Helicobacter pylori strain 1 assessed as diameter of growth inhibition zone at 32 ug/disk after 3-5 days by filter paper disk diffusion method; conditions: read-out: DIZ
[8] = test system: Helicobacter pylori; test: Antibacterial activity against Helicobacter pylori strain 2 assessed as diameter of growth inhibition zone at 16 ug/disk after 3-5 days by filter paper disk diffusion method; conditions: read-out: DIZ
[9] = test system: Escherichia coli; test: microbe, parasite or virus in culture; conditions: ATCC 8739, 24 h
Description: Antibacterial activity against Escherichia coli ATCC 8739 assessed as growth inhibition after 24 hr by microdilution method

[10] = test system: Pseudomonas aeruginosa; test: microbe, parasite or virus in culture; conditions: ATCC 9027, 24 h
Description: Antibacterial activity against Pseudomonas aeruginosa ATCC 9027 assessed as growth inhibition after 24 hr by microdilution method

[11] = test system: Staphylococcus epidermidis; test: microbe, parasite or virus in culture; conditions: ATCC 12228, 24 h
Description: Antibacterial activity against Staphylococcus epidermidis ATCC 12228 assessed as growth inhibition after 24 hr by microdilution method

[12] = test system: Helicobacter pylori; test: Antibacterial activity against Helicobacter pylori strain 3 assessed as diameter of growth inhibition zone at 64 ug/disk after 3-5 days by filter paper disk diffusion method; conditions: read-out: DIZ
[13] = test system: Staphylococcus aureus; test: microbe, parasite or virus in culture; conditions: ATCC 6538p, 24 h
Description: Antibacterial activity against Staphylococcus aureus ATCC 6538p assessed as growth inhibition after 24 hr by microdilution method

[14] = test system: Helicobacter pylori; test: Antibacterial activity against Helicobacter pylori strain 3 assessed as diameter of growth inhibition zone at 8 ug/disk after 3-5 days by filter paper disk diffusion method; conditions: read-out: DIZ
[15] = test system: Helicobacter pylori; test: Antibacterial activity against Helicobacter pylori strain 2 assessed as diameter of growth inhibition zone at 8 ug/disk after 3-5 days by filter paper disk diffusion method; conditions: read-out: DIZ
[16] = test system: Bacillus subtilis; test: microbe, parasite or virus in culture; conditions: ATCC 6633, 24 h
Description: Antibacterial activity against Bacillus subtilis ATCC 6633 assessed as growth inhibition after 24 hr by microdilution method

[17] = test system: Helicobacter pylori; test: Antibacterial activity against Helicobacter pylori strain 2 assessed as diameter of growth inhibition zone at 32 ug/disk after 3-5 days by filter paper disk diffusion method; conditions: read-out: DIZ
[18] = test system: Helicobacter pylori; test: Antibacterial activity against Helicobacter pylori strain 1 assessed as diameter of growth inhibition zone at 8 ug/disk after 3-5 days by filter paper disk diffusion method; conditions: read-out: DIZ

Compound	zone of inhibition at 64 µg/disc [1]	MIC [2]	zone of inhibition at 64 µg/disc [3]	zone of inhibition at 16 µg/disc [4]	zone of inhibition at 16 µg/disc [5]	zone of inhibition at 32 µg/disc [6]	zone of inhibition at 32 µg/disc [7]	zone of inhibition at 16 µg/disc [8]	MIC [9]	MIC [10]	MIC [11]	zone of inhibition at 64 µg/disc [12]	MIC [13]	zone of inhibition at 8 µg/disc [14]	zone of inhibition at 8 µg/disc [15]	MIC [16]	zone of inhibition at 32 µg/disc [17]	zone of inhibition at 8 µg/disc [18]
COc1ccc(-c2csc(/N=C3\NC(=O)/C(=C/C4C(=O)Nc5ccccc54)S3)n2)cc1 (centres undefined)	6 mm	> 100 µg/mL	6 mm	6 mm	6 mm	6 mm	6 mm	6 mm	100 µg/mL (≈ 223 µM)	> 100 µg/mL	100 µg/mL (≈ 223 µM)	6 mm	> 100 µg/mL	6 mm	6 mm	> 100 µg/mL	6 mm	6 mm
O=C1N/C(=N\c2nc3ccccc3s2)S/C1=C\C1C(=O)Nc2ccccc21 (centres undefined)	18 mm	> 100 µg/mL	13 mm	6 mm	6 mm	6 mm	10 mm	13 mm	> 100 µg/mL	> 100 µg/mL	> 100 µg/mL	10 mm	> 100 µg/mL	6 mm	11 mm	> 100 µg/mL	16 mm	6 mm
O=C1N/C(=N\c2nc(-c3ccccc3)cs2)S/C1=C\c1ccc([N+](=O)[O-])s1	–	> 100 µg/mL	–	–	–	–	–	–	> 100 µg/mL	> 100 µg/mL	> 100 µg/mL	–	> 100 µg/mL	–	–	> 100 µg/mL	–	–
COc1ccc(-c2csc(/N=C3\NC(=O)/C(=C/c4ccc([N+](=O)[O-])s4)S3)n2)cc1	39 mm	> 100 µg/mL	30 mm	25 mm	25 mm	30 mm	27 mm	32 mm	100 µg/mL (≈ 225 µM)	> 100 µg/mL	> 100 µg/mL	35 mm	> 100 µg/mL	22 mm	30 mm	> 100 µg/mL	35 mm	22 mm
O=C1N/C(=N\c2nc3ccccc3s2)S/C1=C\c1ccc([N+](=O)[O-])s1	–	> 100 µg/mL	–	–	–	–	–	–	> 100 µg/mL	> 100 µg/mL	0.19 µg/mL (≈ 0.489 µM)	–	0.39 µg/mL (≈ 1 µM)	–	–	0.78 µg/mL (≈ 2.01 µM)	–	–
Cn1c(/C=C2\S/C(=N/c3nccs3)NC2=O)ccc1[N+](=O)[O-]	> 50 mm	0.39 µg/mL (≈ 1.16 µM)	> 50 mm	> 50 mm	> 50 mm	> 50 mm	> 50 mm	> 50 mm	12.5 µg/mL (≈ 37.3 µM)	> 100 µg/mL	0.19 µg/mL (≈ 0.567 µM)	> 50 mm	0.78 µg/mL (≈ 2.33 µM)	> 50 mm	> 50 mm	0.19 µg/mL (≈ 0.567 µM)	> 50 mm	> 50 mm
Cn1c(/C=C2\S/C(=N/c3nc(-c4ccccc4)cs3)NC2=O)ccc1[N+](=O)[O-]	6 mm	> 100 µg/mL	6 mm	6 mm	6 mm	6 mm	6 mm	6 mm	> 100 µg/mL	> 100 µg/mL	50 µg/mL (≈ 122 µM)	6 mm	> 100 µg/mL	6 mm	6 mm	50 µg/mL (≈ 122 µM)	6 mm	6 mm
COc1ccc(-c2csc(/N=C3\NC(=O)/C(=C/c4ccc([N+](=O)[O-])n4C)S3)n2)cc1	6 mm	100 µg/mL (≈ 227 µM)	6 mm	6 mm	6 mm	6 mm	6 mm	6 mm	> 100 µg/mL	> 100 µg/mL	25 µg/mL (≈ 56.6 µM)	6 mm	> 100 µg/mL	6 mm	6 mm	50 µg/mL (≈ 113 µM)	6 mm	6 mm
Cn1c(/C=C2\S/C(=N/c3nc4ccccc4s3)NC2=O)ccc1[N+](=O)[O-]	35 mm	25 µg/mL (≈ 64.9 µM)	32 mm	24 mm	26 mm	26 mm	29 mm	29 mm	> 100 µg/mL	> 100 µg/mL	25 µg/mL (≈ 64.9 µM)	30 mm	25 µg/mL (≈ 64.9 µM)	22 mm	27 mm	12.5 µg/mL (≈ 32.4 µM)	33 mm	23 mm
O=C1N/C(=N\c2nccs2)S/C1=C\C1C(=O)Nc2ccccc21 (centres undefined)	20 mm	> 100 µg/mL	15 mm	10 mm	12 mm	14 mm	13 mm	14 mm	> 100 µg/mL	> 100 µg/mL	12.5 µg/mL (≈ 36.5 µM)	15 mm	25 µg/mL (≈ 73 µM)	10 mm	12 mm	6.25 µg/mL (≈ 18.3 µM)	18 mm	10 mm
O=C(O)c1cn(C2CC2)c2cc(N3CCNCC3)c(F)cc2c1=O [CIPROFLOXACIN]	–	0.006 µg/mL (≈ 0.0181 µM)	–	–	–	–	–	–	–	0.39 µg/mL (≈ 1.18 µM)	0.097 µg/mL (≈ 0.293 µM)	–	0.19 µg/mL (≈ 0.573 µM)	–	–	0.19 µg/mL (≈ 0.573 µM)	–	–
Cc1ncc([N+](=O)[O-])n1CCO [METRONIDAZOLE]	–	–	–	14 mm	14 mm	–	–	14 mm	–	–	–	–	–	–	–	–	–	–
